# Key:
# [1] = Inhibition of quorum sensing system in Pseudomonas aeruginosa MW1 assessed as inhibition of LasR expression incubated for 8 to 12 hrs in presence of 3-oxo-C12 HSL by fluorescence analysis
# [2] = Inhibition of quorum sensing system in Pseudomonas aeruginosa MW1 assessed as inhibition of LasR expression at 33 uM incubated for 8 to 12 hrs in presence of 3-oxo-C12 HSL by fluorescence analysis; conditions: time 8-12 hrs
# [3] = target: T1, Transcriptional activator protein LuxR (Vibrio fischeri (strain ATCC 700601 / ES114), UniProt P35327); test: Antagonist activity against LuxR mediated quorum sensing system in Vibrio fischeri ES114 expressing luxI assessed as decrease in luminescence intensity incubated for 4 to 8 hrs by bioluminescence analysis; set-up: species or system Aliivibrio fischeri
# T1 sequence (P35327 whole entry): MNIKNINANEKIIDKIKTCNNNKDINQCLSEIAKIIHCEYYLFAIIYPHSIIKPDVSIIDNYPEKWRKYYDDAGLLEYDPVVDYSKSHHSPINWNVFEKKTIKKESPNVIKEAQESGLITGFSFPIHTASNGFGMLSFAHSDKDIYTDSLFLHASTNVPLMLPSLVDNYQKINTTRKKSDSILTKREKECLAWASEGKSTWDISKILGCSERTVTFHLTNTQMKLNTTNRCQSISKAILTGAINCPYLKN
# Pseudomonas aeruginosa [4] = test: Inhibition of Pseudomonas aeruginosa MH602 harboring PlasB::gfp(ASV) reporter assessed as decrease in GFP expression at 125 uM incubated for 22 hrs by fluorescence microplate reader analysis
# Pseudomonas aeruginosa [5] = test: Inhibition of Pseudomonas aeruginosa MH602 harboring PlasB::gfp(ASV) reporter assessed as decrease in GFP expression at 250 uM incubated for 22 hrs by fluorescence microplate reader analysis
# [6] = target: T2, Transcriptional activator protein LasR (Pseudomonas aeruginosa (strain ATCC 15692 / PAO1 / 1C / PRS 101 / LMG12228)) (UniProt P25084); test: Antagonist activity against LasR-mediated quorum sensing system in Pseudomonas aeruginosa PAO1 assessed as inhibition of pyocyanin production at 200 uM incubated for 13 hrs by spectrophotometric assay; conditions: filed as antagonist
# T2 sequence (whole entry): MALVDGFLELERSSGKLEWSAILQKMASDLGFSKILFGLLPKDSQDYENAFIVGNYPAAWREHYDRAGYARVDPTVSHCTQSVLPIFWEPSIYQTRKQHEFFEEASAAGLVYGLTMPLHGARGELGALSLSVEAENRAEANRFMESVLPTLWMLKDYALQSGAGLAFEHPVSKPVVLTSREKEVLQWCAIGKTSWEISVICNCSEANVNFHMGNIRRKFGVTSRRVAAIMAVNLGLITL
# [7] = Inhibition of quorum sensing system in Pseudomonas aeruginosa PAO1 assessed as inhibition of pyocyanin production at 32 uM incubated for 17 hrs by spectrophotometric analysis
# [8] = Inhibition of quorum sensing system in Pseudomonas aeruginosa PAO1 assessed as inhibition of pyocyanin production at 250 uM incubated for 17 hrs by spectrophotometric analysis
# Pseudomonas aeruginosa [9] = test: Inhibition of quorum sensing system in Pseudomonas aeruginosa MH602 expressing PlasB::gfp assessed as inhibition of GFP fluorescence expression at 250 uM incubated for 15 hrs by fluorescence microplate reader analysis
# [10] = Inhibition of quorum sensing system in Pseudomonas aeruginosa PA14 assessed as inhibition of pyocyanin production incubated for 17 hrs by spectrophotometric assay
# Escherichia coli [11] = test: Inhibition of Escherichia coli MT102 harbouring pJBA132 expressing Gfp assessed as inhibition of GFP fluorescence expression at 250 uM incubated for 15 hrs by fluorescence microplate reader analysis
# [12] = Inhibition of quorum sensing system in Pseudomonas aeruginosa PA14 assessed as inhibition of pyocyanin production by UV-vis spectrophotometric assay
# Pseudomonas aeruginosa [13] = test: Anti-motility activity against Pseudomonas aeruginosa PAO1 NCTC 10332 assessed as reduction in swimming at 50 uM and measured after 18 hr; assay type: functional; set-up: scale not given: the % may be the effect or the level left
# [14] = Inhibition of quorum sensing system in Pseudomonas aeruginosa PAO1 assessed as inhibition of pqsR expression incubated for 4 hrs by RT-PCR analysis
# Pseudomonas aeruginosa [15] = test: Anti-motility activity against Pseudomonas aeruginosa PAO1 NCTC 10332 assessed as reduction in swarming at 50 uM and measured after 16 hr by swarming assay; assay type: functional; set-up: scale not given: the % may be the effect or the level left
# Pseudomonas aeruginosa [16] = test: Inhibition of biofilm formation in Pseudomonas aeruginosa PAO1 incubated for 12 hrs by crystal violet staining based analysis; assay type: functional
# [17] = Inhibition of quorum sensing system in Pseudomonas aeruginosa PAO1 assessed as decrease in lasI expression at 15 uM incubated for 12 hrs by real-time fluorescent quantitative PCR analysis
# [18] = Inhibition of quorum sensing system in Pseudomonas aeruginosa PAO1 assessed as decrease in pqsR expression at 15 uM incubated for 12 hrs by real-time fluorescent quantitative PCR analysis
# [19] = Inhibition of quorum sensing system in Pseudomonas aeruginosa PAO1 assessed as inhibition of pyocyanin production at 15 uM incubated for 12 hrs by spectrophotometric assay
# [20] = Inhibition of quorum sensing system in Pseudomonas aeruginosa PAO1 assessed as decrease in lasA expression at 15 uM incubated for 12 hrs by real-time fluorescent quantitative PCR analysis
# [21] = Inhibition of quorum sensing system in Pseudomonas aeruginosa PAO1 assessed as inhibition of rhamnolipid production at 15 uM incubated for 12 hrs by spectrophotometric assay
# [22] = Agonist activity against RhlR in Escherichia coli expressing JLD271/pJN105R2/pSC11-rhlI using CPRG as substrate by spectrophotometric assay
# [23] = target: T3, HTH-type quorum-sensing regulator RhlR (Pseudomonas aeruginosa (strain ATCC 15692 / PAO1 / 1C / PRS 101 / LMG12228), UniProt P54292); test: Agonist activity against RhlR in Pseudomonas aeruginosa PAO-JP2 expressing prhlI-LVAgfp using CPRG as substrate by spectrophotometric assay
# T3 sequence (P54292 whole entry): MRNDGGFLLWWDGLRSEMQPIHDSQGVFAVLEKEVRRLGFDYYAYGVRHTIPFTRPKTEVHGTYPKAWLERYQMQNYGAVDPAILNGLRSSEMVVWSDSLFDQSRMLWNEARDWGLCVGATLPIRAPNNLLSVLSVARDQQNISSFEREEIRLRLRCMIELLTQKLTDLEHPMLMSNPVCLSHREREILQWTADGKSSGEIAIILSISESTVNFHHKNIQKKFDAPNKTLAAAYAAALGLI
# [24] = Inhibition of quorum sensing system in Pseudomonas aeruginosa PAO1 assessed as decrease in rhlR expression at 15 uM incubated for 12 hrs by real-time fluorescent quantitative PCR analysis
# [25] = Inhibition of quorum sensing system in Pseudomonas aeruginosa PAO1 assessed as inhibition of elastase production at 15 uM incubated for 12 hrs by Congo red dye based spectrophotometric assay
# [26] = target: T4, Transcriptional activator protein LasR (Pseudomonas aeruginosa (strain ATCC 15692 / PAO1 / 1C / PRS 101 / LMG12228), UniProt P25084); test: Antagonist activity against LasR-mediated quorum sensing system in Pseudomonas aeruginosa PAO1 by spectrophotometric assay
# T4 sequence (P25084 whole entry): T2 sequence (whole entry)
# Escherichia coli [27] = test: Antagonist activity against quorum sensing system in Pseudomonas aeruginosa PAO1 assessed as inhibition of 3OC6HSL- induced GFP expression at 50 uM by fluorescence analysis; conditions: filed as antagonist
# Pseudomonas aeruginosa [28] = test: Antagonist activity against quorum sensing system in Pseudomonas aeruginosa PAO-JP2 (plasI-LVAgfp) assessed as inhibition of 3-oxo-C12 HSL induced GFP expression at 100 uM incubated for 6 hrs in presence of 50 uM of 3-oxo-C12-D10 by fluorescence analysis; conditions: filed as antagonist
# Pseudomonas aeruginosa [29] = test: Antagonist activity against quorum sensing system in Pseudomonas aeruginosa PAO-JP2 (plasI-LVAgfp) assessed as inhibition of 3-oxo-C12 HSL induced GFP expression at 100 uM incubated for 6 hrs in presence of 10 uM of 3-oxo-C12-D10 by fluorescence analysis; conditions: filed as antagonist
# Pseudomonas aeruginosa [30] = test: Antagonist activity against quorum sensing system in Pseudomonas aeruginosa PAO-JP2 (plasI-LVAgfp) assessed as inhibition of 3-oxo-C12 HSL induced GFP expression at 100 uM incubated for 6 hrs in presence of 100 uM of 3-oxo-C12-D10 by fluorescence analysis; conditions: filed as antagonist
structure (smiles),measurement,setting,value
CCCCCCCCCNC(=O)CC(=O)c1ccccc1,IC50,[1],10000 nM
same,inhibition,[2],75%
O=C(Cc1ccc(-c2ccccc2)cc1)N[C@H]1CCOC1=O,IC50,[3],600 nM
O=C1C(=O)N(C(=O)CCl)c2ccccc21,inhibition,Pseudomonas aeruginosa [4],34.7%
same,inhibition,Pseudomonas aeruginosa [5],60.1%
O=C(Cc1ccc(Cl)cc1)N[C@H]1CCOC1=O,IC50,[3],600 nM
CCCCCCCCCC(=O)CC(=O)Nc1ccc(OC)cc1,inhibition,[6],73%
O=C1C(Cl)=C(Cl)CN1c1ccccc1,inhibition,[7],80%
same,inhibition,[8],90%
same,inhibition,Pseudomonas aeruginosa [9],81.7%
O=C(CCCOc1cccc(Br)c1)NC1CCSC1=O (stereo not drawn),IC50,[10],8000 nM
O=C1Cn2nncc2CNC(=O)C(=O)c2ccccc2NC(=O)Cn2nncc2CNC(=O)C(=O)c2ccccc2N1,inhibition,Escherichia coli [11],18.7%
same,inhibition,Pseudomonas aeruginosa [5],74%
Clc1ccc2c(NCCCCCCCCNCc3cc4ccccc4s3)ccnc2c1,IC50,[12],25000 nM
same,Activity,Pseudomonas aeruginosa [13],40%
same,IC50,[14],30000 nM
same,Activity,Pseudomonas aeruginosa [15],40%
CCCCCCCCCC(=O)CC(=O)Nc1cccc(I)c1,inhibition,[6],67%
O=C(CCSc1ccc(Cl)cc1)N[C@H]1CCOC1=O,inhibition (INH),Pseudomonas aeruginosa [16],34.1%
same,inhibition,[17],47.9%
same,inhibition,[18],53.5%
same,inhibition,[19],27.5%
same,inhibition,[20],58.5%
same,inhibition,[21],17.6%
CC(C)CCCC(=O)N[C@H]1CCOC1=O,EC50,[22],1420 nM
same,EC50,[23],1020 nM
CC1=C(Br)/C(=C(\C)Br)OC1=O,inhibition (INH),Pseudomonas aeruginosa [16],28.6%
same,inhibition,[17],26.9%
same,inhibition,[18],45%
same,inhibition,[24],58.8%
same,inhibition,[25],16.5%
same,IC50,[26],17400 nM
same,inhibition,[19],31.6%
same,inhibition,[21],25.8%
CCOC(=O)/C=C1\CC(NCc2ccco2)C(=O)N1Cc1ccco1 (stereo not drawn),inhibition,Escherichia coli [27],56.9%
O=C(CC1CCC1)N[C@H]1CCOC1=O,EC50,[22],1780 nM
same,EC50,[23],1410 nM
C#CNC(=O)C(=O)c1cc(C)ccc1NC(=O)CCl,inhibition,Pseudomonas aeruginosa [4],64.6%
same,inhibition,Pseudomonas aeruginosa [5],36.9%
C#CNC(=O)C(=O)c1cc(Br)ccc1NC(=O)CCl,inhibition,Pseudomonas aeruginosa [4],65%
same,inhibition,Pseudomonas aeruginosa [5],31.8%
CCCCCCCCCC(=O)CC(=O)Nc1cccc(OC)c1,inhibition,[6],93%
O=C1C(Br)=C(Br)CN1c1ccccc1,inhibition,[7],80%
same,inhibition,[8],90%
same,inhibition,Pseudomonas aeruginosa [9],80.7%
CCCCCCCCCC(=O)CC(=O)Nc1ccccc1O,inhibition,Pseudomonas aeruginosa [28],80%
same,inhibition,Pseudomonas aeruginosa [29],60%
same,inhibition,Pseudomonas aeruginosa [30],90%
